Assays:
Format in all cases: cell-based, human
[1] = tested on: HUVEC cells; test: pseudo-tube formation assay, HUVEC on matrigel; conditions: 10^−7 M, 5 h, vs vehicle; p = 0.0087
Description: (§1) We observed PlexA1 positive blood vessels in the tissue array of GBM samples (Figure 5A). […] To address this possibility we first used a transgenic zebra-fish model tg(kdrl:eGFP) highlighting the endothelial cells. This allowed us to assess the angiogenic activities in vivo by analyzing formation of intersegmental vessels (ISVs) after morpholino-based knockdown of the target.
Figure 5 MTP-PlexA1 inhibits developmental and tumor-specific PlexA1 pro-angiogenic role (A) Microphotographs illustrating the expression of PlexA1 in vascular-like structures in human glioma tissues. (Scale bar: 40 μm). (B) Morpholino-based PlexA1 knockdown in Zebrafish tg(kdrl:eGFP) line. Representative images of control, Plexin-A1 mismatch and Pexin-A1 knockdown embryos (plxna1MO) are shown 28 hours post fertilization (28hpf). […] (E) Live-monitoring of VEGF-induced HUVEC cell migration assay using the XCelligence system (transwell assay). (F) Microphotographs illustrating the expression of PlexA1 in blood vessels of the chick chorioallontoic membrane (upper left picture). Microphotographs (middle and lower left pictures) and camera lucida drawing (middle and lower right pictures) showing representative fields of observation after 24 h incubation with VEGF (100 ng/ml, +vehicle) or VEGF + MTP-PlexA1 (10^−7 M). The number of VEGF-induced new blood vessels is shown in the graph. […]

[2] = tested on: HUVEC cells; test: live-monitoring trans-well migration assay, HUVEC (X-Celligence); conditions: p = 0.0002
Description: as §1
Figure 5 MTP-PlexA1 inhibits developmental and tumor-specific PlexA1 pro-angiogenic role (A) Microphotographs illustrating the expression of PlexA1 in vascular-like structures in human glioma tissues. (Scale bar: 40 μm). (B) Morpholino-based PlexA1 knockdown in Zebrafish tg(kdrl:eGFP) line. Representative images of control, Plexin-A1 mismatch and Pexin-A1 knockdown embryos (plxna1MO) are shown 28 hours post fertilization (28hpf). […] (E) Live-monitoring of VEGF-induced HUVEC cell migration assay using the XCelligence system (transwell assay). (F) Microphotographs illustrating the expression of PlexA1 in blood vessels of the chick chorioallontoic membrane (upper left picture). Microphotographs (middle and lower left pictures) and camera lucida drawing (middle and lower right pictures) showing representative fields of observation after 24 h incubation with VEGF (100 ng/ml, +vehicle) or VEGF + MTP-PlexA1 (10^−7 M). The number of VEGF-induced new blood vessels is shown in the graph.

[3] = tested on: p-Akt/Akt; test: western blot of Akt phosphorylation in U373MG cells; conditions: Sema3A 100 ng/ml + MTP-PlexA1 10^−7 M
Description: (C) Rac-1 activation assay in resting condition and after Sema3A-induced Rac-1 activation in U373 MG cells. (D) Western blot analysis of phosphorylated Akt, total Akt and tubulin in U373MG cells treated with the vehicle (LDS 72 μM), Sema3A (100 ng/ml) or Sema3A + MTP-PlexA1 (10^−7 M). The lower panel is showing the quantification of the p-Akt/Akt ratio in the different conditions. (E) MTP-PlexA1 decreases VEGFR-2 phosphorylation induced by VEGF (100 ng/ml) in HUVEC cells. […]
in 20 mM sodium acetate (pH 4.5) at a flow rate of 5 μl/ min 10–7 M of MTP-PlexA1 or Vehicle (LDS, 72 µM) during until desired surface densities, measured in response 1 h. Stimulation was done with 100ng/ml Semaphorin 3A units, were reached. […] First antibodies (Rabbit anti-phospho-the elution buffer containing detergent removed non- akt, Rabbit anti-akt, Cell Signaling #4060 and #9272 biotinylated peptides rendering the chip ready for analysis respectively) and mouse anti-tubulin α (Cell Signaling with monomeric biot-MTP-PlexA1. Blank surfaces were #2144) were incubated overnight at 4°C (+ anti-NRP1, used for background corrections. Injections of 30 µl anti-PlexA4 Abcam). […] Images of the immuno-blots cells per well in a 6-well plate and serum starved overnight. were acquired and analyzed thanks to the GENE GNOME Before protein extraction, the cells were treated either with apparatus (Syngene Bio Imaging, UK).

## TLPAIVGIGGGGGLLLLVIVAVLIAYKRK [MTP-PlexA1, synthetic transmembrane peptide mimicking the TMD of PlexA1]
[1]
  change of tube-like structures (HUVEC on matrigel): −68%
[2]
  change of VEGFA-induced HUVEC cell migration: −63%
[3]
  effect on Sema3A-induced inhibition of Akt phosphorylation: blocked

Source: article PMC5295395, “Inhibition of PlexA1-mediated brain tumor growth and tumor-associated angiogenesis using a transmembrane domain targeting peptide” (Oncotarget, 2016)
